Reference: patent US8853242B2, “Nitrogenous-ring acylguanidine derivative” (Astellas Pharma Inc., priority 2009, dated 2014)
Structures can show the parent of a compound that is named as a salt.

Legend:
human 5-HT5A receptor = human 5-HT5A receptor (Homo sapiens (Human), UniProt P47898); test: Test on a human 5-HT5A receptor binding inhibition ([3H]5-CT); conditions: membrane from HEK293 cells expressing human 5-HT5A receptor, Ki calculated from IC50
Description: The ORF (open reading frame; protein coding region) of a human 5-HT5A receptor (Genbank AF498985) was cloned from a human hippocampus cDNA library, and then inserted into a pCR2.1 vector (Invitrogen), and Escherichia coli containing the plasmid was cultured in a large amount. Next, the full-length cDNA sequence of the human 5-HT5A receptor was analyzed, and recombined into a pCDNA3.1 vector (Invitrogen) as an expression vector and cultured in a large amount. HEK293 established cells (ATCC) derived from the human fetal kidney were seeded, the expression plasmid (1 μg) obtained above were added thereto with LIPOFECTAMINE 2000 (Invitrogen; 2 μl), the gene was transfected into HEK293 cells, and the expression cells were screened with a drug-resistant marker, Geneticin (G418 sulfate 500 μg/ml; Kanto Chemical Co., Inc.). Thus prepared recombinant cells which expressed the gene were cultured in a medium containing D-MEM (Dulbecco's modified eagle medium, Sigma), 10% FCS (Fetal calf serum: fetal bovine serum), 1% Pc./Sm (Penicillin/Streptomycin, Invitrogen), and 500 μg/ml G418 for 3 days. These experimental operations followed a manual for gene operation experiment and an instruction appended in a reagent, and the like, such as a known method (Sambrook, J. et al, Molecular Cloning-A Laboratory Manual”, Cold Spring Harabor laboratory, NY, 1989).
HEK293 cells for forced expressions of a human 5-HT5A receptor were cultured in a F500 plate, and scraped with a scraper. After centrifugation, the precipitate was collected, and an incubation buffer (50 mM Tris (HCl) (pH 7.4), 10 mM MgSO4, and 0.5 mM EDTA (ethylenediamine tetraacetic acid)) was added thereto. After homogenization, it was further centrifuged, and the incubation buffer was added to the precipitate, followed by thoroughly suspending. The operation was repeated, and protein concentration was measured, thereby completing preparation of the membrane.
A solution of the compound to be tested and 100 μM 5-CT (5-carboxamidetriptamine) in DMSO was added to a 96-well plate at 2 μl/well, suspended in an incubation buffer, and a membrane from HEK293 cells for forced expressions of a human 5-HT5A receptor prepared at 200 μg/ml was added at 100 μl/well. After incubation at room temperature for 15 minutes, a [^3H]5-CT solution (2 nM [^3H]5-CT, incubation buffer) was added thereto at 100 μl/well.
Separately, 100 μl of the solution was distributed into a liquid scintillation vial, and 2 ml of Aquasol II (registered trademark) was added thereto, followed by stirring. Then, radioactivity was measured by a liquid scintillation counter. It was incubated at 37° C. for 60 minutes. The reaction mixture was sucked into 96-well GF/C filter plate that had been pre-treated with 0.2% polyethyleneimine, and washed six times with an ice-cooled, 50 mM Tris (pH 7.5) buffer. The GF/C filter plate was dried.
Microscint TMPS (registered trademark) was added thereto at 40 μl/well. Radioactivity remaining on the GF/C filter plate was measured by a top counter.
The [^3H]5-CT binding inhibiting activity by the compound to be tested in each experiment was determined as an IC50 value with a radioactivity upon addition of DMSO alone being 0% inhibition, and a radioactivity upon addition of 1 μM 5-CT being 100% inhibition. Separately, Ki values were calculated from the Kd value of the [^3H]5-CT determined from Scatchard analysis, by the following equation. Ki=IC50(1+Concentraion of ligand added/Kd(4.95 nM))

Male ICR mouse [1] = test: Hyperactivity (quantity of motion) induced by MK-801 in mice; type: in vivo; conditions: MK-801 0.3 mg/kg, P<0.05
Description: (§1) The improvement effect of compound of formula (I) on schizophrenia was evaluated by measuring the quantity of motion inhibited by administration of the compound in a model in which the symptoms were induced by methamphetamine (hereinafter abbreviated as MAP) and MK-801.
(§2) The animal was taken out of a breeding cage, orally administered with a test compound, and then placed into a cage for breeding. After 30 minutes, the animal was put into a cage for measurement, and the quantity of motion with the test compound alone was measured. Further, after 30 to 90 minutes, the animal was taken out, and subcutaneously or intraperitoneally administered with a drug for increasing the quantity of motion (MAP; 1.5 mg/kg or MK-801; 0.3 mg/kg, dissolved in physiological saline, respectively). Then, the quantity of motion for a certain period of time (60 minutes) was measured using a device for measuring the quantity of motion (CompACT AMS manufactured by Muromachi Kikai Co., Ltd.) by means of an infrared sensor.
(§3) For a normal mouse (a mouse administered with physiological saline) and a mouse administered with a drug for increasing the quantity of motion, a Student's T test was performed for evaluation for each interval. For a group administered with the test compound, an assay was performed using a solvent (vehicle) group and a Dunnett's T test. For the evaluation, if there was a significant difference (P<0.05), it was considered that there is an effect.

Male ddY mouse = test: Spontaneous alternation behavior (Y-maze) induced by Scoporamine in mice; type: in vivo; conditions: Scoporamine 0.5 mg/kg i.p.
Description: The improvement effect of compound of formula (I) on cognitive impairment of dementia and schizophrenia was evaluated by a known test method as a model with short-term learning disorder.
After 10 to 30 minutes from oral administration of the test compound, 0.5 mg/kg of Scoporamine or 0.15 mg/kg of MK-801 (in the case of a normal group, physiological saline was administered) was intraperitoneally administered. After 20 minutes, the test was conducted. In addition, solvent (vehicle) was orally administered to the normal group (to which physiological saline was administered) and to the control group (to which 0.5 mg/kg of Scoporamine or 0.15 mg/kg of MK-801 was administered), when the test compound was administered.
A mouse was placed at the end of one arm of a Y-maze having arms with the same length in three directions, and then allowed to explore freely and the number of arm entries was counted for 8 minutes. Further, spontaneous alternation behavior was defined as entries into all three different arms on consecutive occasions, and the ratio of the number of instances of this behavior to the total number of the entries was calculated as an alternation rate by the following formula: Alternation rate(%)=Number of spontaneous alternation behaviors/(Total number of entries−2)×100.
If a significant difference between the normal group and the control group (Student's T test) was approved in the alternation rate (%), it was considered to have learning disorder by the administration of Scoporamine or MK-801. By carrying out a Dunnett's test on the group administered with the test compound with respect to the control group, the presence or absence of effect of the test compound on learning disorder was evaluated. For each assay, it was considered that there was a tendency when p<0.10 and there was a significant difference when p<0.05.

Male ICR mouse [2] = test: Hyperactivity (quantity of motion) induced by methamphetamine (MAP) in mice; type: in vivo; conditions: oral dose 0.1 mg/kg; MAP 1.5 mg/kg; P<0.05
Description: as §1, §2
as §3, with “For the evaluation, if there was a significant difference (P<0.05), it was considered that there is an effect.” left out

human 5-HT5A receptor, sequence (P47898 whole entry): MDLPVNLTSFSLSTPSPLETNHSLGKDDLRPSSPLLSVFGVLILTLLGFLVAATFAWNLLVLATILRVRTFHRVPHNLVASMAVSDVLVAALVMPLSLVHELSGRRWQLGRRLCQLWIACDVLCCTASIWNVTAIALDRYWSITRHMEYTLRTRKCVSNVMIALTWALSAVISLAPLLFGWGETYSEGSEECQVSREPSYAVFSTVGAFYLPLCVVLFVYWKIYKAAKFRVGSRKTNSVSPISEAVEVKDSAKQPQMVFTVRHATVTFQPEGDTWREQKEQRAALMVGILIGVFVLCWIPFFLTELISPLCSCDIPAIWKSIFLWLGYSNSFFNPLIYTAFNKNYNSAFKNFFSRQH

SMILES | Ki (human 5-HT5A receptor; [3H]5-CT binding) [nM] | Ki (human 5-HT5A receptor; [3H]5-CT binding inhibition) [nM] | also measured
NC(N)=NC(=O)c1ccc2ncc(Cl)c(-c3ccc(F)cc3)c2c1 [Example 73] | 1 to 10 |  | hyperactivity induced by MK-801 (Male ICR mouse [1]; oral dose 0.1 mg/kg): significantly inhibited
Cc1cnc(-c2ccccc2F)c2cc(C(=O)N=C(N)N)ccc12 [Example 192] | 1 to 10 | 1.8 | spontaneous alternation behavior induced by Scoporamine (Male ddY mouse; oral dose 0.003 mg/kg): significantly inhibited; hyperactivity induced by MK-801 (Male ICR mouse [1]; oral dose 0.01 mg/kg): significantly inhibited
NC(N)=NC(=O)c1ccc2c(F)cnc(-c3c(F)cncc3F)c2c1 [Example 157] | 1 to 10 | 5.3 | spontaneous alternation behavior induced by Scoporamine (Male ddY mouse; oral dose 0.001 mg/kg): significantly inhibited; hyperactivity induced by MK-801 (Male ICR mouse [1]; oral dose 0.03 mg/kg): significantly inhibited
NC(N)=NC(=O)c1ccc2ncc(Cl)c(-c3ccncc3F)c2c1 [Example 104] | 1 to 10 |  | 
NC(N)=NC(=O)c1ccc2c(F)cnc(-c3ccc(F)cc3)c2c1 [Example 190] | 1 to 10 |  | 
COc1cc(Cl)ccc1-c1ncc(F)c2ccc(C(=O)N=C(N)N)cc12 [Example 204] | 10 to 100 |  | 
Cc1cnc2ccc(C(=O)N=C(N)N)cc2c1-c1ccccc1F [Example 51] | 1 to 10 |  | 
NC(N)=NC(=O)c1cnc2cccc(-c3c(F)cc(F)cc3F)c2c1 [Example 227] | 10 to 100 |  | 
NC(N)=NC(=O)c1ccc2c(F)cnc(-c3ccncc3Cl)c2c1 [Example 163] | 10 to 100 |  | 

Continued, in another order:

Ki (human 5-HT5A receptor; [3H]5-CT binding) [nM] | Ki (human 5-HT5A receptor; [3H]5-CT binding inhibition) [nM] | SMILES | also measured
 | 3.3 | NC(N)=NC(=O)c1ccc2c(F)cnc(-c3ccccc3F)c2c1 [Example 160] | spontaneous alternation behavior induced by Scoporamine (Male ddY mouse; oral dose 0.001 mg/kg): significantly inhibited; hyperactivity induced by MK-801 (Male ICR mouse [1]; oral dose 0.01 mg/kg): significantly inhibited
 | 1.4 | NC(N)=NC(=O)c1ccc2c(F)cnc(-c3c(F)cccc3F)c2c1 [Example 148] | spontaneous alternation behavior induced by Scoporamine (Male ddY mouse; oral dose 0.01 mg/kg): significantly inhibited; hyperactivity induced by MK-801 (Male ICR mouse [1]; oral dose 0.03 mg/kg): significantly inhibited; hyperactivity induced by MAP (Male ICR mouse [2]): significantly inhibited
 | 6.2 | NC(N)=NC(=O)c1ccc2c(F)cnc(-c3ncc(F)cc3Cl)c2c1 [Example 171] | 
10 to 100 |  | Cc1cc2ccc(C(=O)N=C(N)N)cc2c(-c2c(F)cccc2F)n1 [Example 155] | 
1 to 10 | 4.7 | NC(N)=NC(=O)c1ccc2c(F)cnc(-c3c(F)cncc3Cl)c2c1 [Example 164] | 
1 to 10 |  | Cc1cnc2ccc(C(=O)N=C(N)N)cc2c1-c1cccc(F)c1Cl [Example 61] | 
1 to 10 |  | Cc1cnc2ccc(C(=O)N=C(N)N)cc2c1-c1c(F)cccc1F [Example 32] | 
10 to 100 | 13 | Cc1cc(-c2c(F)cc(F)cc2F)c2cc(C(=O)N=C(N)N)ccc2n1 [Example 6] | 
 | 1.2 | NC(N)=NC(=O)c1ccc2c(Cl)cnc(-c3c(F)cccc3F)c2c1 [Example 162] | 
1 to 10 |  | CN/C(N)=N/C(=O)c1ccc2nccc(-c3c(F)cc(F)cc3F)c2c1 [Example 3, N-[1-amino(methylamino)methylene]-4-(2,4,6-trifluorophenyl)quinoline-6-carboxamide dihydrochloride] | 
